How the values were obtained:
Assay in all cases: radiometric filter-binding kinase assay, Kinase HotSpot
Conditions in all cases: compound 0.5 µM; ATP 10 µM
CAMK4 (human) = CAMK4 (human) (UniProt Q16566)
CDK1 CCNB1 (human) = CDK1 CCNB1 (human) (UniProt P06493+P14635)
JAK3 JH1 JH2 (human) = JAK3 JH1 JH2 (human) (UniProt P52333)
DSTYK (human) = DSTYK (human) (UniProt Q6XUX3)
DAPK2 (human) = DAPK2 (human) (UniProt Q9UIK4)
CHEK2 (human) = CHEK2 (human) (UniProt O96017)
STK33 (human) = STK33 (human) (UniProt Q9BYT3)
PRKG2 (human) = PRKG2 (human) (UniProt Q13237)
MARK3 (human) = MARK3 (human) (UniProt P27448)
PRKCD (human) = PRKCD (human) (UniProt Q05655)
BRSK2 (human) = BRSK2 (human) (UniProt Q8IWQ3)
EPHA2 (human) = EPHA2 (human) (UniProt P29317)
AURKA (human) = AURKA (human) (UniProt O14965)
ULK1 (human) = ULK1 (human) (UniProt O75385)
BLK (human) = BLK (human) (UniProt P51451)
EPHA3 (human) = EPHA3 (human) (UniProt P29320)
GRK5 (human) = GRK5 (human) (UniProt P34947)
LCK (human) = LCK (human) (UniProt P06239)
Chain of LCK (human) (P06239 whole entry, looked up): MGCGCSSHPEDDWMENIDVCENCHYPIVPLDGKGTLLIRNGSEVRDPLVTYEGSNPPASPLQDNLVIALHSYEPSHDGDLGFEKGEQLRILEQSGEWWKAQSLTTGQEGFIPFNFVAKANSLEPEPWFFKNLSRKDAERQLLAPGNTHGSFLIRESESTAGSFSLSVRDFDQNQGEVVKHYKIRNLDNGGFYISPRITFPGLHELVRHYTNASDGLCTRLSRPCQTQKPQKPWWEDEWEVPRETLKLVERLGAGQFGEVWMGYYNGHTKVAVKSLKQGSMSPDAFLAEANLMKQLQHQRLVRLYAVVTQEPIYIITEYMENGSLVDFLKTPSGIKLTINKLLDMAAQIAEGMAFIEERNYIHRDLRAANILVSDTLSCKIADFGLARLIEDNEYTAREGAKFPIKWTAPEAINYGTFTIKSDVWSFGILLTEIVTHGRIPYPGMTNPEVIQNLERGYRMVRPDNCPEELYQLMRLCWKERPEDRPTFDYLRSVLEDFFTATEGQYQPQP

MAPK9 (human) = MAPK9 (human) (UniProt P45984)
Chain of MAPK9 (human) (P45984 whole entry, looked up): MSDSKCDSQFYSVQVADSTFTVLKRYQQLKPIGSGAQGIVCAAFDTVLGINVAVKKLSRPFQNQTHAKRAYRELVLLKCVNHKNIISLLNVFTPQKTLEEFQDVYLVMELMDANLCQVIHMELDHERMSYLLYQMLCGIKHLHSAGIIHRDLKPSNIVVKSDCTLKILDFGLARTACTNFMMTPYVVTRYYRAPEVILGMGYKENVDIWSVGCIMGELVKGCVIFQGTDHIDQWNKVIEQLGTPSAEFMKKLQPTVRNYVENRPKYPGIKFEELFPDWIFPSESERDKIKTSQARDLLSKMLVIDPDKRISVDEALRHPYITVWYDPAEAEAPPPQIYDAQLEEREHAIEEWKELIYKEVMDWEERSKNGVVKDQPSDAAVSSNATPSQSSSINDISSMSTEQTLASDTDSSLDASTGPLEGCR

ULK2 (human) = ULK2 (human) (UniProt Q8IYT8)
CLK4 (human) = CLK4 (human) (UniProt Q9HAZ1)
PRKCG (human) = PRKCG (human) (UniProt P05129)
FLT3 (human) = FLT3 (human) (UniProt P36888)
NLK (human) = NLK (human) (UniProt Q9UBE8)
CAMK2G (human) = CAMK2G (human) (UniProt Q13555)
BMX (human) = BMX (human) (UniProt P51813)
EPHB1 (human) = EPHB1 (human) (UniProt P54762)
ACVR1 (human) = ACVR1 (human) (UniProt Q04771)
Chain of ACVR1 (human) (Q04771 whole entry, looked up): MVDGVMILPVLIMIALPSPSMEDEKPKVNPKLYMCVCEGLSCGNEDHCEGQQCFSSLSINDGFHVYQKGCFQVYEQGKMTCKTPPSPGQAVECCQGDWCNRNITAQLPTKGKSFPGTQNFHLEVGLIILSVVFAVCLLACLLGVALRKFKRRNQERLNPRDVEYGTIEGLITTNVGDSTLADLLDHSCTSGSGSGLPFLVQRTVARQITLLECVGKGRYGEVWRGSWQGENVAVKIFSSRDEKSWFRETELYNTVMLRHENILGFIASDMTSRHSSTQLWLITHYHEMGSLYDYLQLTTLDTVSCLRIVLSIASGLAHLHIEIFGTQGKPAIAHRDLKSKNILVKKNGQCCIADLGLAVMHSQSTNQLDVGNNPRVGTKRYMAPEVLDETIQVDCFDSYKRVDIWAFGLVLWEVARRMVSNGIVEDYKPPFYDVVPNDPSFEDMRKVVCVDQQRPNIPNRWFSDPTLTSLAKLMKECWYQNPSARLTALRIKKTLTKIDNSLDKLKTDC

ROCK2 (human) = ROCK2 (human) (UniProt O75116)
NTRK2 (human) = NTRK2 (human) (UniProt Q16620)
FGFR2 (human) = FGFR2 (human) (UniProt P21802)
MAP2K2 (human) = MAP2K2 (human) (UniProt P36507)
DAPK3 (human) = DAPK3 (human) (UniProt O43293)
Chain of DAPK3 (human) (O43293 whole entry, looked up): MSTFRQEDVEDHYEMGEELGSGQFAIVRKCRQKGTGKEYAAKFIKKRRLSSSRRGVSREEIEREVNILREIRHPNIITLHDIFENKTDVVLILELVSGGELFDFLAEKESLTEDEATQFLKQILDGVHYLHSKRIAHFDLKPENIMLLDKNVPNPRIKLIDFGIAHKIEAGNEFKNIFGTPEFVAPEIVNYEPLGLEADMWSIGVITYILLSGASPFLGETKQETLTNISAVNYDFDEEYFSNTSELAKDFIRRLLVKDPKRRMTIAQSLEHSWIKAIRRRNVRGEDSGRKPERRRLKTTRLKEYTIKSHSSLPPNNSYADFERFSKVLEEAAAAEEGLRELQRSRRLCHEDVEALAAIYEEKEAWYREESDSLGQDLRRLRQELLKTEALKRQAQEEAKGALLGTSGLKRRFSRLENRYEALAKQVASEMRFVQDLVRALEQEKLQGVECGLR

PAK3 (human) = PAK3 (human) (UniProt O75914)
FLT1 (human) = FLT1 (human) (UniProt P17948)
TEC (human) = TEC (human) (UniProt P42680)
Chain of TEC (human) (P42680 whole entry, looked up): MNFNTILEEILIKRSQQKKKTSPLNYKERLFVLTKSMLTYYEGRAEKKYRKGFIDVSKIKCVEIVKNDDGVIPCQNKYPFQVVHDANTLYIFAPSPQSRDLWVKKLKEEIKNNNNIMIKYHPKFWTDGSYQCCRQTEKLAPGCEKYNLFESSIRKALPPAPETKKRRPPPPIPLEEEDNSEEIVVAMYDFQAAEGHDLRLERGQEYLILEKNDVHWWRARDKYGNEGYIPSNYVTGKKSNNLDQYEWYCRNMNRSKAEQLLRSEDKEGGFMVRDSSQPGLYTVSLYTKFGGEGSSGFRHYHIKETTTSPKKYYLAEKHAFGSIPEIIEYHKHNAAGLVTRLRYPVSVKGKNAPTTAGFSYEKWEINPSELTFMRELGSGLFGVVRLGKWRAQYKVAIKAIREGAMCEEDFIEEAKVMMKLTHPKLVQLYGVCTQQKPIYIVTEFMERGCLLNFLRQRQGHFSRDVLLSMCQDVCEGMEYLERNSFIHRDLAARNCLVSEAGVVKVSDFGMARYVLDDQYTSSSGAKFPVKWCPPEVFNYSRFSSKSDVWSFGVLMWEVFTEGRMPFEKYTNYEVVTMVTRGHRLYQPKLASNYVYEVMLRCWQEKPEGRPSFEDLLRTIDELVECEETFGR

PLK2 (human) = PLK2 (human) (UniProt Q9NYY3)
Chain of PLK2 (human) (Q9NYY3 whole entry, looked up): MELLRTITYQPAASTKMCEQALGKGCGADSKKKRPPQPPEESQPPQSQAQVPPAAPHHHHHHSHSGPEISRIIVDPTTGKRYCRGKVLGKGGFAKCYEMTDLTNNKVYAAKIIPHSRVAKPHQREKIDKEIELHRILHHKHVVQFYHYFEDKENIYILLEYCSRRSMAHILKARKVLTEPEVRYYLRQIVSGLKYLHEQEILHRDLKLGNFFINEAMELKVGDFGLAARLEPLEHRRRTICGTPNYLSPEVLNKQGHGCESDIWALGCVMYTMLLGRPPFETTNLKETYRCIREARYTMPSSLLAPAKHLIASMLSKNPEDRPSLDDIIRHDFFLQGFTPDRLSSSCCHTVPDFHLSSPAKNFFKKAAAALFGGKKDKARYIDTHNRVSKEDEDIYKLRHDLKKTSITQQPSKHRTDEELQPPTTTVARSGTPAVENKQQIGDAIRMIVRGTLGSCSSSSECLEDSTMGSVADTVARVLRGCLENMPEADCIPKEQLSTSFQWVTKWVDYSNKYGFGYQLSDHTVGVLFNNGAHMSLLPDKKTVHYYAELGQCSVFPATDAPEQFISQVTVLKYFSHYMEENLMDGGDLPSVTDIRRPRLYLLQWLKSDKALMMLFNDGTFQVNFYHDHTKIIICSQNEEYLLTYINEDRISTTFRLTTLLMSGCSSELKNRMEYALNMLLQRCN

MAP4K5 (human) = MAP4K5 (human) (UniProt Q9Y4K4)
PAK2 (human) = PAK2 (human) (UniProt Q13177)
MATK (human) = MATK (human) (UniProt P42679)
Chain of MATK (human) (P42679 whole entry, looked up): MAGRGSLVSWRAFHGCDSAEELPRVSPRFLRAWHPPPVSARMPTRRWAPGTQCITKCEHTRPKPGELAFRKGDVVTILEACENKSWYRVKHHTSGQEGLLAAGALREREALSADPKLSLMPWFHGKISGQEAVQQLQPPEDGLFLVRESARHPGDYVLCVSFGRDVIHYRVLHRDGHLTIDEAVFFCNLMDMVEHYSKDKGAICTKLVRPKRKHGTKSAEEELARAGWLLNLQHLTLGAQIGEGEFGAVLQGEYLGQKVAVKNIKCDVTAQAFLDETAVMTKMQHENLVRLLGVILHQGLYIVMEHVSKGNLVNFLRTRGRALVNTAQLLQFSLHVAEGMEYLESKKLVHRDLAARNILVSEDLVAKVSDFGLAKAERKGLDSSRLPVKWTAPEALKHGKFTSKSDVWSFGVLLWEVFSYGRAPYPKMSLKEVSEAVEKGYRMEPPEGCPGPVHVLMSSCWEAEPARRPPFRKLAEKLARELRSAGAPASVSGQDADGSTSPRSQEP

DYRK4 (human) = DYRK4 (human) (UniProt Q9NR20)
MERTK (human) = MERTK (human) (UniProt Q12866)

Chain of CHEK2 (human) (O96017 whole entry, looked up): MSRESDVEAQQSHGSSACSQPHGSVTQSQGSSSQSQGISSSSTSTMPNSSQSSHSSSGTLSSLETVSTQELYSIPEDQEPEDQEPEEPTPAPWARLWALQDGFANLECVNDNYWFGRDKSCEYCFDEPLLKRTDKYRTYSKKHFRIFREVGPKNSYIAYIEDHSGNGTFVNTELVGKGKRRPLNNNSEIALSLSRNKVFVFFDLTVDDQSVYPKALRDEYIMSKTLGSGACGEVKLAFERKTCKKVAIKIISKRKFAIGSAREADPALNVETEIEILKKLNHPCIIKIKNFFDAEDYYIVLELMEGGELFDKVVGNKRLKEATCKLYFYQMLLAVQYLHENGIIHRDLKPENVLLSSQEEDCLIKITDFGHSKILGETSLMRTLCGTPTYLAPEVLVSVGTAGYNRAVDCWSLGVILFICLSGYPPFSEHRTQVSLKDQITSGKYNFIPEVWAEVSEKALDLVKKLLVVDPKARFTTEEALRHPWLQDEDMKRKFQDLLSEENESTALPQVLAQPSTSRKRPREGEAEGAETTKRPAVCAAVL

In the case of `O=C1NC(=O)/C(=C/c2ccc3c(c2)OC(F)(F)O3)S1`, the residual activity (CAMK4 (human)) is reported as 101%, the residual activity (CDK1 CCNB1 (human)) is reported as 99.6% and the residual activity (JAK3 JH1 JH2 (human)) is reported as 98.6%. The residual activity (DSTYK (human)) was 89.3%, the residual activity (DAPK2 (human)) was 105% and the residual activity (CHEK2 (human)) was 97.9%. For the same molecule, the residual activity (STK33 (human)) was 90.8%, the residual activity (PRKG2 (human)) was 104% and the residual activity (MARK3 (human)) was 92.3%. The residual activity (PRKCD (human)) was 93.2%, the residual activity (BRSK2 (human)) was 90.9% and the residual activity (EPHA2 (human)) was 96.3%. The residual activity (AURKA (human)) was 92.4%, the residual activity (ULK1 (human)) was 100% and the residual activity (BLK (human)) was 99.2%. It also gave a residual activity (EPHA3 (human)) of 97.6%, a residual activity (GRK5 (human)) of 105% and a residual activity (LCK (human)) of 98.3%. The residual activity (MAPK9 (human)) was 90.9%, the residual activity (ULK2 (human)) was 100% and the residual activity (CLK4 (human)) was 88.8%. The residual activity (PRKCG (human)) was 101%, the residual activity (FLT3 (human)) was 92.9% and the residual activity (NLK (human)) was 93.8%. The residual activity (CAMK2G (human)) was 102%, the residual activity (BMX (human)) was 99.6% and the residual activity (EPHB1 (human)) was 95.6%. It also gave a residual activity (ACVR1 (human)) of 97.4%, a residual activity (ROCK2 (human)) of 92.4% and a residual activity (NTRK2 (human)) of 91.9%. It also gave a residual activity (FGFR2 (human)) of 97.6%, a residual activity (MAP2K2 (human)) of 110% and a residual activity (DAPK3 (human)) of 104%. For the same molecule, the residual activity (PAK3 (human)) was 93.1%, the residual activity (FLT1 (human)) was 81.5% and the residual activity (TEC (human)) was 108%. For the same molecule, the residual activity (PLK2 (human)) was 99.7%, the residual activity (MAP4K5 (human)) was 88.1% and the residual activity (PAK2 (human)) was 99.9%. For the same molecule, the residual activity (MATK (human)) was 93.2%, the residual activity (DYRK4 (human)) was 97.7% and the residual activity (MERTK (human)) was 94.5%.
For `O=C1Nc2ccc(Cl)cc2/C1=C/c1cc(Cl)c(O)c(Cl)c1`, the residual activity (CAMK4 (human)) was 96.8%, the residual activity (CDK1 CCNB1 (human)) was 96.3% and the residual activity (JAK3 JH1 JH2 (human)) was 100%. It also gave a residual activity (DSTYK (human)) of 89.6%, a residual activity (DAPK2 (human)) of 135% and a residual activity (CHEK2 (human)) of 70.2%. It also gave a residual activity (STK33 (human)) of 85.1%, a residual activity (PRKG2 (human)) of 97% and a residual activity (MARK3 (human)) of 81.1%. It also gave a residual activity (PRKCD (human)) of 86.7%, a residual activity (BRSK2 (human)) of 77.2% and a residual activity (EPHA2 (human)) of 95%. For the same molecule, the residual activity (AURKA (human)) was 64.2%, the residual activity (ULK1 (human)) was 95% and the residual activity (BLK (human)) was 102%. It also gave a residual activity (EPHA3 (human)) of 82.5%, a residual activity (GRK5 (human)) of 95.8% and a residual activity (LCK (human)) of 88.2%. For the same molecule, the residual activity (MAPK9 (human)) was 100%, the residual activity (ULK2 (human)) was 101% and the residual activity (CLK4 (human)) was 60.7%. The residual activity (FLT3 (human)) was 26.5%, the residual activity (NLK (human)) was 38.9% and the residual activity (CAMK2G (human)) was 119%. The residual activity (BMX (human)) was 94.8%, the residual activity (EPHB1 (human)) was 91% and the residual activity (ACVR1 (human)) was 130%. For the same molecule, the residual activity (ROCK2 (human)) was 90.6%, the residual activity (NTRK2 (human)) was 61.1% and the residual activity (FGFR2 (human)) was 92%. It also gave a residual activity (MAP2K2 (human)) of 82%, a residual activity (DAPK3 (human)) of 82.3% and a residual activity (PAK3 (human)) of 94.3%. It also gave a residual activity (FLT1 (human)) of 85%, a residual activity (TEC (human)) of 109% and a residual activity (PLK2 (human)) of 95.4%. For the same molecule, the residual activity (MAP4K5 (human)) was 75.9%, the residual activity (PAK2 (human)) was 96.8% and the residual activity (MATK (human)) was 82.2%. For the same molecule, the residual activity (DYRK4 (human)) was 95.7% and the residual activity (MERTK (human)) was 88.4%.
Molecule `Cc1ccc(Nc2nccc(N(C)c3ccc4c(C)n(C)nc4c3)n2)cc1S(N)(=O)=O` has a residual activity (CAMK4 (human)) of 95.9%, a residual activity (CDK1 CCNB1 (human)) of 99.6% and a residual activity (JAK3 JH1 JH2 (human)) of 95.3%. It also gave a residual activity (DSTYK (human)) of 94.3%, a residual activity (DAPK2 (human)) of 93% and a residual activity (CHEK2 (human)) of 95.1%. The residual activity (STK33 (human)) was 87.1%, the residual activity (PRKG2 (human)) was 96% and the residual activity (MARK3 (human)) was 96.6%. For the same molecule, the residual activity (PRKCD (human)) was 106%, the residual activity (BRSK2 (human)) was 101% and the residual activity (EPHA2 (human)) was 85.7%. For the same molecule, the residual activity (AURKA (human)) was 38.4%, the residual activity (ULK1 (human)) was 97.3% and the residual activity (BLK (human)) was 75.6%. The residual activity (EPHA3 (human)) was 94.1%, the residual activity (GRK5 (human)) was 99.6% and the residual activity (LCK (human)) was 43.3%. The residual activity (ULK2 (human)) was 102%, the residual activity (CLK4 (human)) was 91.7% and the residual activity (PRKCG (human)) was 93.5%. The residual activity (FLT3 (human)) was 40.7%, the residual activity (NLK (human)) was 69% and the residual activity (CAMK2G (human)) was 106%. It also gave a residual activity (BMX (human)) of 93.4%, a residual activity (EPHB1 (human)) of 92.2% and a residual activity (ACVR1 (human)) of 104%. For the same molecule, the residual activity (ROCK2 (human)) was 91.1%, the residual activity (NTRK2 (human)) was 91.5% and the residual activity (FGFR2 (human)) was 40.2%. It also gave a residual activity (MAP2K2 (human)) of 94.8%, a residual activity (DAPK3 (human)) of 92.3% and a residual activity (PAK3 (human)) of 90.6%. The residual activity (FLT1 (human)) was 27.2%, the residual activity (TEC (human)) was 101% and the residual activity (PLK2 (human)) was 101%. The residual activity (MAP4K5 (human)) was 30.3%, the residual activity (PAK2 (human)) was 98.9% and the residual activity (MATK (human)) was 104%. It also gave a residual activity (DYRK4 (human)) of 106% and a residual activity (MERTK (human)) of 57.2%.
`CC(C)N(CCC(=O)c1ccc2ccccc2c1)Cc1ccccc1` gave a residual activity (CAMK4 (human)) of 98.3%, a residual activity (CDK1 CCNB1 (human)) of 104% and a residual activity (JAK3 JH1 JH2 (human)) of 80.9%. The residual activity (DSTYK (human)) was 84.9%, the residual activity (DAPK2 (human)) was 99.6% and the residual activity (CHEK2 (human)) was 87.5%. For the same molecule, the residual activity (STK33 (human)) was 104%, the residual activity (PRKG2 (human)) was 139% and the residual activity (MARK3 (human)) was 101%. The residual activity (PRKCD (human)) was 94%, the residual activity (BRSK2 (human)) was 103% and the residual activity (AURKA (human)) was 104%. It also gave a residual activity (ULK1 (human)) of 104%, a residual activity (BLK (human)) of 106% and a residual activity (EPHA3 (human)) of 85%. For the same molecule, the residual activity (GRK5 (human)) was 93.7%, the residual activity (LCK (human)) was 98.9% and the residual activity (MAPK9 (human)) was 100%. The residual activity (ULK2 (human)) was 113%, the residual activity (CLK4 (human)) was 91.7% and the residual activity (PRKCG (human)) was 92.7%. For the same molecule, the residual activity (FLT3 (human)) was 97.5%, the residual activity (NLK (human)) was 94.8% and the residual activity (CAMK2G (human)) was 97.7%. It also gave a residual activity (BMX (human)) of 102%, a residual activity (EPHB1 (human)) of 96.8% and a residual activity (ACVR1 (human)) of 93.6%. The residual activity (ROCK2 (human)) was 92.8%, the residual activity (NTRK2 (human)) was 92.1% and the residual activity (FGFR2 (human)) was 107%. The residual activity (MAP2K2 (human)) was 92.5%, the residual activity (DAPK3 (human)) was 107% and the residual activity (PAK3 (human)) was 98.6%. It also gave a residual activity (FLT1 (human)) of 86%, a residual activity (TEC (human)) of 115% and a residual activity (PLK2 (human)) of 97%. The residual activity (MAP4K5 (human)) was 90.2%, the residual activity (PAK2 (human)) was 107% and the residual activity (MATK (human)) was 80.7%. It also gave a residual activity (DYRK4 (human)) of 88.5% and a residual activity (MERTK (human)) of 106%.
